Laboratory results from patent US4571403A, “Antianginal medicated compound” (Institut Organicheskoi Khimii Imeni N.D. Zelinskogo …, priority 1984, dated 1986).
Entries after “also recorded” stand apart in the source; their conditions may differ.

Key:
[1] = acute toxicity on mice; type: in vivo; conditions: mouse, in vivo
Source text: (§1) The acute toxicity of the preparation according to the present invention has been studied on mice and rats.

[2] = system: mice; experiment: acute toxicity on mice; type: in vivo
Source text: as §1

[3] = system: rats; experiment: chronical toxicity in rats, intraperitoneal; type: in vivo
[4] = system: vessels of heart, kidney and limbs; experiment: resistogram of vessels of heart, kidney and limbs; type: in vivo
Source text: To find out the participance of the vascular factor in redistribution of regional blood flow, resistogram of vessels of heart, kidney and limbs has been recorded. […] The effect of the preparation on the heart activity and basic characteristics of hemodynamics has been also studied.

[5] = system: cardio-vascular effects; experiment: overall cardiovascular effects / conclusions of the tests; conditions: in vivo
Source text: The results of the above-described tests allow the following conclusions characterizing the properties of the medicated compound according to the present invention.

[6] = system: blood flow in aorta; experiment: volumetric blood flow in the ascending aortic arch, anesthetized cats and dogs; type: in vivo; conditions: 200-500 mg/kg intravenously
Source text: (§2) In experiments on cats and dogs under the general anesthesia conditions the volumetric flow rate of blood flow in the ascending part of the aortic arch has been recorded by the electromagnetic method using an electromagnetic blood flow meter and vessel sensors of appropriate size. On the basis of analysis of the phase curve of the blood flow, the main characteristics of heart activity and hemodynamics have been calculated. […] The averaged data of analysis of phase curves of the blood flow in cat's aorta under general anesthesia conditions (8 tests) are given in the Table hereinbelow.

[7] = solubility in water; type: physicochemical; conditions: white crystalline powder
[8] = system: ischemic zone of myocardium; experiment: model of acute attack of stenocardia (Sekeresh's model) in anesthetized dogs; type: in vivo
Source text: The effect of the preparation on the functional state of the ischemic center has been studied in experiments on dogs under the conditions of general anesthesia. The effects caused by the preparation have been studied on the model of an acute attack of stenocardia (Sekeresh's model). The functional state of the ischemic focus has been assessed through analysis of epicardial heart electrograms in the ischemic zone and adjacent regions. The stenocardiac attack is caused by way of a partial occlusion of the coronary artery (left descending artery) and including a high rhythm of heart contractions (up to 250 beats/minute) by way of electrical stimulation of the heart auricula. Under these conditions there take place changes of the heart electrograms typical for acute ischemia of myocardium.

[9] = system: systemic arterial pressure; experiment: effect on arterial pressure in cats and dogs; type: in vivo
Description: The effect of the preparation on the arterial pressure has been also studied. […] The average value of the maximum drop of pressure during the first 10 minutes after the administration is 8-10% of the initial level. In doses of 500 mg/kg the preparation causes hypotensive reaction with the intensity of 15-18% of the initial level at the duration of the effect of 20-30 minutes.

[10] = system: activity of heart and hemodynamics; experiment: phase curve analysis of aortic blood flow: activity of heart and hemodynamics in anesthetized cats; type: in vivo; design: Maximum blood flow: unit not given here; conditions: for Time of systolic ejaculation: background 0.14 ± 0.008; for Time of diastolic relaxation: background 0.22 ± 0.01; for Minute work: background 0.88 ± 0.09; for Systolic (beat) volume: background 1.93 ± 0.12; for Maximum blood flow: background 19.7 ± 2.1; for Maximum linear speed: background 35 ± 1.9; for Average arterial pressure: background 148 ± 7.6; for Pulse frequency: background 181 ± 5; for Minute volume: background 372 ± 26
Source text: as §2
Effect of the preparation (250 mg/kg intravenously) on the
activity of heart and basic characteristics of hemodynamics

[11] = system: coronary blood flow; experiment: rate of coronary blood flow and oxygen absorption by myocardium in anesthetized cats; type: in vivo
Description: At the same time, the content of oxyhemoglobin in the coronary venous blood is determined by the photometrical method and the absorption of oxygen by myocardium is calculated on the basis of the arterio-venous difference value.
The effect duration varies within the range of from 5 to 10 minutes. With increasing the preparation dose up to 500 mg/kg, the intensity and duration of the effect are increased reaching respectively 108±12% and 30-40 minutes.
Calculation of the amount of the heart-absorbed oxygen points to it explicit increase (29±2.3%).

[12] = acute toxicity on rats; conditions: rat, in vivo
Source text: as §1

[13] = system: sympathetic nerves of heart and kidney; experiment: tonic and reflectorial bioelectric activity in sympathetic nerves of heart and kidney; type: in vivo; conditions: cats
Source text: In experiments on anesthetized (urethane+chloralose) and immobilized (succinylcholine bromide) cats (14 tests) there has been studied the effect of the preparation in various doses on the tonic and reflectorial bioelectric activity in sympathetic nerves of heart and kidney. Somatosympathetic reflexes are caused by electric irritation of afferent A- and C- fibers of the tibial nerve.

[14] = intraperitoneal 200 mg/kg for 6 months and 1,000 mg/kg for 1 month
[15] = 50 mg/kg intravenously, cats and dogs
[16] = 5 minutes after 250 mg/kg intravenously
[17] = 10 minutes after 250 mg/kg intravenously
[18] = 20 minutes after 250 mg/kg intravenously
[19] = 40 minutes after 250 mg/kg intravenously

CN1C(=O)N(C)C2C1N(C)C(=O)N2C (centres unmarked) [the preparation, 2,4,6,8-tetramethyl-2,4,6,8-tetraazobicyclo-/3,3,0/-octanedione-3,7]
LD50 [1]: 3800 mg/kg | LD50 [2]: 3,800 mg/kg of the body weight | accumulation [3, 14]: not accumulated | effect on hematoplasty and urination [3, 14]: does not affect hematoplasty and urination | histological changes in the visceral organs ([3]; kidney, liver, spleen, heart and the like, intraperitoneal 200 mg/kg 6 months, 1,000 mg/kg 1 month): no pathological changes in the visceral organs | tension of vessels ([4]; heart, kidney and limbs): monodirectionally lowers tension of all vessels | resistance of coronary vessels versus peripheral vessels ([4]; in vivo): lowered to a greater extent than that of peripheral vessels | arterial pressure [5]: no substantial change of arterial pressure | colateral blood flow in deep (endocardial) layers of myocardium [5]: contributes to the development of the colateral blood flow in deep (endocardial) layers of myocardium | contractibility of myocardium (inotropic effect) [5]: positive inotropic effect; also recorded: increases contractibility of myocardium | frequency of heart contractions [5]: without affecting the frequency of heart contractions | functional state of the ischemic centre [5]: capable of improving functional state of the ischemic centre; also recorded: capable of improve the functional state of the ischemic centre | lactate in the blood outflowing from the ischemic zone [5]: lowering the content of lactate in the blood outflowing from the ischemic zone | sympathetic tonus of heart and vessels [5]: capable of inhibiting the sympathetic tonus of heart and vessels | vascular component of pain reactions [5]: capable of inhibiting the sympathetic tonus of heart and vessels, as well as vascular components of pain reactions; also recorded: suppresses the vascular component of pain reactions | volumetric rate of total coronary blood flow [5]: increases the volumetric rate of total coronary blood flow | duration of increased blood flow in aorta [6]: 30 to 40 min | increase of blood flow in aorta [6]: 50-70% | tachycardia [6]: uncertainly pronounced tachycardia | solubility in water [7]: well soluble in water | ischemic changes of epicardial electrograms in the zone of ischemia ([8]; 200 mg/kg, dogs): inhibited the development of ischemic changes of epicardial electrograms in the zone of ischemia | blood inflow into the ischemic zone (retrograde blood flow) ([8]; dogs): considerably increase the blood inflow into the ischemic zone | activity compared with nonachlazine (sum of pharmacological effects) ([8]; experimental model of acute myocardium ischemia): more active (as regards the sum of pharmacological effects) than the known preparation nonachlazine | arterial pressure reaction during the first 5 minutes [9, 15]: uncertain hypertensive reaction | effect on the systemic arterial pressure [9, 15]: no essential effect on the systemic arterial pressure | changes of the arterial pressure ([9]; 250 mg/kg, cats and dogs): opposite-sign changes of the arterial pressure mainly of hypotensive character | average value of the maximum drop of pressure ([9]; 250 mg/kg, first 10 minutes after administration, cats and dogs): 8-10 % of the initial level | duration of the hypotensive effect ([9]; 500 mg/kg, cats and dogs): 20 to 30 min | hypotensive reaction intensity ([9]; 500 mg/kg, cats and dogs): 15-18 % of the initial level | influence on the adrenoreactive structures of the vessels ([9]; dog, in vivo): does not influence the adrenoreactive structures of the vessels | depressor reactions on isoproterenol ([9]; isoproterenol 2.5 μg/kg): does not change the character | pressor reactions of arterial pressure on noradrenaline ([9]; noradrenaline 3 μg/kg): does not change the character | heart function ([10]; 250 mg/kg intravenously): capable of increase the heart function | Time of systolic ejaculation [10, 16]: 0.12 ± 0.01 s | Time of diastolic relaxation [10, 16]: 0.22 ± 0.01 s | Minute work [10, 16]: 1.12 ± 0.15 kgm | Systolic (beat) volume [10, 16]: 2.22 ± 0.15 mL | Maximum blood flow [10, 16]: 30 ± 8.2 | Maximum linear speed [10, 16]: 41 ± 2.7 cm/s | Average arterial pressure [10, 16]: 137 ± 6.9 mm Hg | Pulse frequency [10, 16]: 190 ± 6 b/min | Minute volume [10, 16]: 464 ± 38 mL/min | Time of systolic ejaculation [10, 17]: 0.11 ± 0.09 s | Time of diastolic relaxation [10, 17]: 0.21 ± 0.01 s | Minute work [10, 17]: 1.23 ± 0.11 kgm | Systolic (beat) volume [10, 17]: 2.34 ± 0.18 mL | Maximum blood flow [10, 17]: 34 ± 2.6 | Maximum linear speed [10, 17]: 49 ± 2.8 cm/s | Average arterial pressure [10, 17]: 126 ± 8.1 mm Hg | Pulse frequency [10, 17]: 197 ± 5 b/min | Minute volume [10, 17]: 488 ± 43 mL/min | Time of systolic ejaculation [10, 18]: 0.13 ± 0.01 s | Time of diastolic relaxation [10, 18]: 0.20 ± 0.01 s | Minute work [10, 18]: 0.97 ± 0.08 kgm | Systolic (beat) volume [10, 18]: 2.01 ± 0.15 mL | Maximum blood flow [10, 18]: 28 ± 1.4 | Maximum linear speed [10, 18]: 38 ± 2.3 cm/s | Average arterial pressure [10, 18]: 139 ± 7.4 mm Hg | Pulse frequency [10, 18]: 191 ± 7 b/min | Minute volume [10, 18]: 415 ± 32 mL/min | Time of systolic ejaculation [10, 19]: 0.13 ± 0.008 s | Time of diastolic relaxation [10, 19]: 0.23 ± 0.009 s | Minute work [10, 19]: 0.83 ± 0.10 kgm | Systolic (beat) volume [10, 19]: 1.97 ± 0.12 mL | Maximum blood flow [10, 19]: 21.4 ± 2.2 | Maximum linear speed [10, 19]: 33. ± 3.1 cm/sec | Average arterial pressure [10, 19]: 146 ± 8.8 mm Hg | Pulse frequency [10, 19]: 183 ± 7 b/min | Minute volume [10, 19]: 397 ± 33 mL/min | arterio-venous difference relative to oxygen [11]: lowering the arterio-venous difference relative to oxygen; also recorded: decrease in the arterio-venous difference relative to oxygen | content of oxyhemoglobin in coronary venous blood [11]: increased content of oxyhemoglobin in coronary venous blood | increase of coronary blood flow versus absorption of oxygen by myocardium [11]: surpasses the absorption of oxygen by myocardium | increase of coronary blood flow ([11]; 50 mg/kg intravenously, average): 32±5% | duration of coronary blood flow effect ([11]; 500 mg/kg): 30 to 40 min | increase of coronary blood flow ([11]; 500 mg/kg): 108±12% | increase of the amount of the heart-absorbed oxygen ([11]; calculated from arterio-venous difference): 29±2.3% | LD50 [12]: 3450 mg/kg | pressor responses caused by tetanic irritation of tibial nerve ([13]; 50 mg/kg): remain unchanged | tonic and reflectorial activity in sympathetic nerves ([13]; 50 mg/kg): does not noticeably change the character and intensity of tonic and reflectorial activity in sympathetic nerves | spontaneous activity and reflectorial responses ([13]; 50 mg/kg, in a certain number of the experiments): slight amplification of spontaneous activity and facilitation of reflectorial responses | C-responses of the reflectorial discharges ([13]; 250-500 mg/kg): suppressed | inhibiting component of the reflectorial response ([13]; 250-500 mg/kg): amplification of the inhibiting component of the reflectorial response | tonic activity in sympathetic nerves ([13]; 250-500 mg/kg): weakly inhibited
